The record followed here is paper PMC4145624, “Simultaneous purification of nitrile hydratase and amidase of Alcaligenes sp. MTCC 10674” (3 Biotech, 2013).

Assay [1] deals with T1, Nitrile hydratase (Nhase).
T1 construct: gene nthA; native, purified from Alcaligenes sp; MTCC 10674 cells (DEAE-Sepharose); heterodimer of 24 and 21 kDa, 47 kDa by native PAGE
Description: acrylamide formation at […] nm. In kind it is biochemical, Alcaligenes sp. MTCC 10674. The following applies: sodium phosphate buffer 0.125 M, pH 8.0, 15 °C (standard assay).

A further assay concerns T2, Amidase.
T2 construct: native, purified from Alcaligenes sp; MTCC 10674 cells (DEAE-Sepharose, Sephacryl S-100); dimer of 52 and 49 kDa, 114 kDa by native PAGE
Description: ammonia release assay. The format is biochemical, Alcaligenes sp. MTCC 10674. The following applies: sodium phosphate buffer 0.075 M, pH 8.0, 45 °C (standard assay); substrate named, not in the Km sentence.

In the case of `C=CC#N` [acrylonitrile], the Km in assay [1] stood at 40 mM.

With `CCC(N)=O` [propionamide], in the assay on Amidase, the Km was 45.5 mM.
